From patent US11672785B2, “Tetrahydro-1H-pyrido [3,4-b]indole anti-estrogenic drugs” (Olema Pharmaceuticals, Inc., priority 2015, dated 2023)
pIC50: −log10 of the molar value. Entries after “also recorded” stand apart in the source; their conditions may differ. Where two headings read alike, the source gives them in different places.

Legend:
[1] = test system: estrogen-responsive reporter gene, ERE-tk109-Luc; assay: Inhibition of E2-induced transcription, ERE-tk109-Luc reporter in transfected MCF-7 cells; type: cell-based; conditions: Homo sapiens, MCF7; for IC50: mean of n, read-out: Inhibition of E2-stimulated transcription in breast cells pIC50 (converted)
Protocol: Representative compounds were tested for their inhibitory activity of estrogen according to the assay methods described in Hodges-Gallagher, L., Valentine, C. […] Specifically, MCF-7 cells were transiently transfected with an estrogen-responsive reporter gene, ERE-tk109-Luc. […] Luciferase activity was normalized to activity of E2 alone and IC50's were calculated using the least squares fit method.

[2] = test system: MCF-7 breast cancer cells; assay: Inhibition of E2-stimulated proliferation of MCF-7 cells (Cyquant); type: cell-based; conditions: Homo sapiens, MCF7; for IC50: mean of n, read-out: Inhibition of E2-stimulated proliferation in breast cells pIC50 (converted)
Protocol: Proliferation of MCF-7 breast cancer cells was measured using Cyquant, a fluorescent DNA-binding dye (Thermo Fisher Scientific). MCF-7 cells were treated with antiestrogens in triplicate in hormone-depleted medium for 5-7 days in the presence of 100 pM E2. Fluorescent activity was normalized to the activity of E2 alone and IC50's were calculated using the least squares fit method.

[3] = test system: AP activity in ECC-1 cells; assay: Alkaline phosphatase (AP) assay in ECC-1 uterine cells, agonist mode; type: cell-based, human; conditions: mean of n
Protocol: Method for performing the alkaline phosphatase (AP) assay. ECC-1 cells were trypsinized and resuspended in hormone-depleted media and plated at a density of 15 k cells per well into a 96-well plate for at least 4 hours. Cells were treated with antiestrogens for 3 days and plates were subsequently frozen at −80° C. Thawed plates were incubated with a chromogenic substrate of AP, p-nitrophenyl phosphate (Thermo Fisher Scientific), for 40 minutes at 40° C. and absorbances were read at 405 nm. AP activity was normalized to the activity of E2 alone. […] A representative result for induction of AP activity in uterine cells (% E2) is shown below in tabular form: […]

[4] = Free fraction of drug in human plasma, rapid equilibrium dialysis; type: in vitro ADME
Description: (§1) Method for detecting free fraction of drug in plasma: Compounds were screened for binding to human and mouse plasma (Bioreclamation, IVT) using a rapid equilibrium dialysis device (Thermo Fisher Scientific) and compounds subsequently detected by LC-MS/MS. Percent free drug equals the concentration of compound in buffer chamber divided by that in the […] chamber×100.

[5] = Free fraction of drug in mouse plasma, rapid equilibrium dialysis; type: in vitro ADME
Description: as §1

[6] = molecular target: T1, ERα (Homo sapiens (Human), UniProt P03372); assay: ERα levels in MCF-7 cells, in-cell western (Colorimetric In-Cell ELISA); type: cell-based; conditions: for Relative change in ERα levels in breast cells % Veh: MCF-7, 24 hours
T1 sequence (P03372 whole entry): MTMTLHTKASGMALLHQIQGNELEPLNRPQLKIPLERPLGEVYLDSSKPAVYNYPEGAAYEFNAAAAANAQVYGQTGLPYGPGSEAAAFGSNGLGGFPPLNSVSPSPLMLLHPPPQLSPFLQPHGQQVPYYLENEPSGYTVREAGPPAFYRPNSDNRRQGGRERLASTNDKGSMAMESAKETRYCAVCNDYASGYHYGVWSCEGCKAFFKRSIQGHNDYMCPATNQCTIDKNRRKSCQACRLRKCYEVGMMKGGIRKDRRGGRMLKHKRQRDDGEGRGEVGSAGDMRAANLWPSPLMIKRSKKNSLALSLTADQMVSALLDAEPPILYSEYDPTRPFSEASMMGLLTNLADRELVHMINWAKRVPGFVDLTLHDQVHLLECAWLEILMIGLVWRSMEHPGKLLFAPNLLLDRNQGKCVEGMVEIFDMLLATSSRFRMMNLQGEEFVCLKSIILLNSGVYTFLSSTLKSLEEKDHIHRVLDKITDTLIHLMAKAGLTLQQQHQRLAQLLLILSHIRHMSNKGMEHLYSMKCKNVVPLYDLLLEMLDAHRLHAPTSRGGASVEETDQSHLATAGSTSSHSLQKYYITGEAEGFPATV
Protocol: IC50's were calculated using the least squares fit method. Error bars represent S.E.M from triplicate wells.

[7] = molecular target: T1, ERα; assay: ER degradation in MCF-7 cells, immunoblot; type: cell-based; conditions: 100 nM, 24 hours, serum-free medium
Protocol: MCF-7 cells were treated with 100 nM anti-estrogen for 24 hours in serum-free medium and protein extracts immunoblotted with D12 antibody to ERα and β-actin (Santa Cruz Biotechnology). The numbers below the blots represent the optical density of ERα bands of each treatment relative to percent vehicle after normalization to β-actin.

[8] = test system: MCF-7 (HER2/neu) tumors; assay: Xenograft study, Clone 18 (MCF7/Her2/neu) tumors in athymic ovariectomized nu/nu mice; type: in vivo; conditions: oral gavage, 10 mg/kg, FIGS. 5A-B
Protocol: Xenograft studies were conducted by the Preclinical Therapeutics Core at the University of California, San Francisco in accordance with the Institutional Animal Care and Use Committee (IACUC) guidelines. Clone 18 cells (MCF7/Her2/neu) cells were grown in culture and implanted into athymic ovariectomized nu/nu mice. To stimulate tumor growth 0.36 mg estradiol 90 day release pellets (Innovative Research, Saratoga, Fla.) were implanted along with cells. When tumors reached 150-250 cubic millimeters the pellets were exchanged for 0.18 mg estradiol 90 day release pellets and divided into groups of six mice per treatment group. One of those groups received vehicle only (0.5% CMC+8% DMSO), and Compound B and Compound C each had 2 groups treated with either 10 or 100 mg/kg compound. Compounds were administered by oral gavage twice daily, except once daily on weekends/holidays for the first 21 days, and once daily after day 21. Tumors and bodyweight were measured twice weekly.

[9] = Pharmacokinetics in BALB/c female mice, oral gavage; type: in vivo; conditions: for oral drug exposure, free fraction taken into account, vs equal dose of Compounds 107 and 102: mice, oral gavage, FIGS. 1A-1B
Protocol: Pharmacokinetics were studied in BALB/c female mice. For each arm, three BALB/c female mice were given 5 mg/kg of compound in 0.5% CMC formulation by oral gavage. Concentration of compounds in mouse plasma and their metabolites were analyzed at each time point using LC-MS/MS. The concentrations were adjusted for the free fraction of drug in mouse plasma (method below). Area under the curve was calculated using the trapezoidal rule for 0-24 hours.

[10] = test system: AP activity in ECC-1 cells; assay: Alkaline phosphatase (AP) assay in ECC-1 uterine cells, antagonist mode (co-treated with 500 pM E2); type: cell-based, human; conditions: 100 nM antiestrogen
Protocol: Method for performing the alkaline phosphatase (AP) assay. ECC-1 cells were trypsinized and resuspended in hormone-depleted media and plated at a density of 15 k cells per well into a 96-well plate for at least 4 hours. Cells were treated with antiestrogens for 3 days and plates were subsequently frozen at −80° C. […] AP activity was normalized to the activity of E2 alone.

[11] = MCF-7, 100 pM E2, 22 hours, read-out: inhibition of E2-induced transcription in breast cells IC50
[12] = Table 1, read-out: ERE-Luc IC50
[13] = MCF-7, 100 pM E2, 5-7 days, read-out: inhibition of E2-stimulated proliferation in breast cells IC50
[14] = Table 1, read-out: MCF-7 Proliferation IC50
[15] = BALB/c mice, 5 mg/kg oral gavage

Row | SMILES | IC50 [1] | IC50 [2] | Induction of Alkaline Phosphatase (AP) % E2 [3] | fraction unbound [4] | fraction unbound [5] | pIC50 [1, 11] | pIC50 [1, 12] | pIC50 [2, 13] | pIC50 [2, 14] | ER degradation in MCF-7 cells (in-cell western, FIG. 2) ([6]; 24 hours) | Relative change in ERα levels in breast cells % Veh [6] | ER degradation in MCF-7 cells (immunoblot, FIG. 7) [7] | tumor shrinkage in xenografted mice [8] | 24 hour drug exposure compared to other compounds [9, 15] | half-life [9, 15] | oral bioavailability [9, 15] | oral drug exposure, free fraction taken into account, vs equal dose of Compounds 107 and 102 [9] | residual AP activity in uterine cells (% of E2 alone) [10]
1 | CCCN1CC(Oc2cc(F)c([C@@H]3c4[nH]c5ccccc5c4C[C@@H](C)N3CC(C)(C)F)c(F)c2)C1 [Goodacre Compound 107, (1R,3R)-1-(2,6-difluoro-4-((1-propylazetidin-3-yl)oxy)phenyl)-2-(2-fluoro-2-methylpropyl)-3-methyl-2,3,4,9-tetrahydro-1H-pyrido[3,4-b]indole, reference compound] | 4.37 nM | 7.59 nM | 0.00 % E2 | 0.00013 | 0.00012 |  |  |  |  |  |  |  |  |  |  |  |  | 
2 | CCCN1CC(Oc2ccc([C@@H]3c4[nH]c5ccccc5c4C[C@@H](C)N3CC(C)(C)F)cc2)C1 [Compound B, (1R,3R)-2-(2-fluoro-2-methylpropyl)-3-methyl-1-(4-((1-propylazetidin-3-yl)oxy)phenyl)-2,3,4,9-tetrahydro-1H-pyrido[3,4-b]indole] | 4.37 nM | 7.76 nM |  | 0.00036 | 0.00027 | 8.36 | 8.36 | 8.34 | 8.34 | degrades the estrogen receptor | 45 % Veh | degrades the estrogen receptor | outstandingly potent in shrinking human breast cancer xenografts; also recorded: shrinks MCF-7 (HER2/neu) tumors | better | high | high | substantially higher | 
3 | C[C@@H]1Cc2c([nH]c3ccccc23)[C@@H](c2c(F)cc(OCCN3CC(CF)C3)cc2F)N1CC(C)(C)F [Compound D, (1R,3R)-1-(2,6-difluoro-4-(2-(3-(fluoromethyl)azetidin-1-yl)ethoxy)phenyl)-2-(2-fluoro-2-methylpropyl)-3-methyl-2,3,4,9-tetrahydro-1H-pyrido[3,4-b]indole] | 9.55 nM | 10.5 nM |  | 0.00044 | 0.00036 | 8.00 | 8.00 | 8.08 | 8.08 |  |  |  |  |  |  |  |  | 4.07 % E2
4 | CCCN1CC(Oc2ccc([C@@H]3c4[nH]c5ccccc5c4C[C@@H](C)N3CC(C)(C)F)cc2F)C1 [Compound A, (1R,3R)-2-(2-fluoro-2-methylpropyl)-1-(3-fluoro-4-((1-propylazetidin-3-yl)oxy)phenyl)-3-methyl-2,3,4,9-tetrahydro-1H-pyrido[3,4-b]indole] |  |  |  |  |  | 8.53 | 8.53 | 8.12 | 8.12 |  |  |  |  |  |  |  |  | 
5 | C[C@@H]1Cc2c([nH]c3ccccc23)[C@@H](c2c(F)cc(/C=C/C(=O)O)cc2F)N1CC(C)(C)F [AZD9496, (E)-3-(3,5-Difluoro-4-((1R,3R)-2-(2-fluoro-2-methylpropyl)-3-methyl-2,3,4,9-tetrahydro-1H-pyrido[3,4-b]indol-1-yl)phenyl)acrylic Acid, reference compound] | 0.631 nM |  |  | 0.00308 | 0.00214 | 9.70 | 9.70 |  |  |  |  |  |  |  |  |  |  | 
6 | Oc1ccc2c(c1)CC[C@H](c1ccccc1)[C@@H]2c1ccc(OCCN2CCCC2)cc1 [Lasofoxifene, reference compound] |  |  |  |  |  | 8.34 |  | 7.96 |  |  |  |  |  |  |  |  |  | 
7 | C[C@@H]1Cc2c([nH]c3ccccc23)[C@@H](c2ccc(OCCN3CC(CF)C3)cc2)N1CC(C)(C)F [Compound C, (1R,3R)-2-(2-fluoro-2-methylpropyl)-1-(4-(2-(3-(fluoromethyl)azetidin-1-yl)ethoxy)phenyl)-3-methyl-2,3,4,9-tetrahydro-1H-pyrido[3,4-b]indole] | 8.13 nM | 11.7 nM |  | 0.00151 | 0.00092 | 7.97 | 7.97 | 8.89 | 7.84 |  | 42 % Veh |  | outstandingly potent in shrinking human breast cancer xenografts |  |  |  | substantially higher | 
8 | C[C@]12CC[C@@H]3c4ccc(O)cc4C[C@@H](CCCCCCCCC[S+]([O-])CCCC(F)(F)C(F)(F)F)[C@H]3[C@@H]1CC[C@@H]2O (stereo partly drawn) [Fulvestrant, reference compound] | 1.91 nM | 2.63 nM |  | 1e-05 |  | 8.85 |  | 8.68 |  |  |  |  |  |  |  |  |  | 
